Assay results published in patent US20220401573A1, “COMPOSITION AND METHOD FOR TREATMENT OF MULTIPLE SCLEROSIS” (Wuhan Vast Conduct Science Foundation CO., LTD., priority 2019, published 2022).

System: EAE mice
Assay: Clinical scoring of MOG-induced EAE in mice
Format: in vivo, C57BL/6N female mice
Conditions: 10 mg/kg p.o., day 1 to day 28, positive control, FIG. 10
Procedure: C57BL/6N female mice, 7-9 weeks old, were used. Animals were housed and maintained in compliance with the regulations.
On Day 0, mice were grouped randomly by body weight, and then injected subcutaneously with 200 μg of myelin oligodendrocyte glycoprotein (MOG) peptide in complete Freund's adjuvant (CFA) into the right and left flank, 100 μl per site. Pertussis toxin (PTX) injected by i.p at 0 and 48 hours after MOG immunization. Compounds were given from day 1 to day 28 according to Table 2. The animals (n=10) were scored daily for clinical signs of EAE. At the end of the experiments, spinal cords were used for HE staining (n=5), and analysis of TNF-α, IL-17, IFN-γ by Elisa kit.
The animals were scored daily for clinical signs of EAE according to the Clinical scoring rubric for EAE (Table 3).

For `C[C@]12C=CC(=O)C=C1CC[C@@H]1[C@@H]2C(=O)C[C@@]2(C)[C@H]1CC[C@]2(O)C(=O)CO` [prednisone, Prednisone], the “clinical signs of EAE (clinical score)” value was “significantly reduced clinical signs of EAE from day 13th”.
